Experimental data published in PubChem BioAssay (NCI).
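Cultured in 96-well plates, cells were exposed to test compound for 48 hours across five concentrations. GI50 marks 50% less growth. TGI is the concentration that stops growth completely.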

Columns and labels:
Assay in all cases: DTP human tumour cell line panel, 48 h; in the data active = GI50 below about 0.43 µM; inactive = the rest
786-0 renal = tested on: 786-0 renal
A498 renal = tested on: A498 renal
A549 NSCLC = tested on: A549 NSCLC
ACHN renal = tested on: ACHN renal
BT-549 breast = tested on: BT-549 breast
CAKI-1 renal = tested on: CAKI-1 renal
CCRF-CEM leukemia = tested on: CCRF-CEM leukemia
COLO 205 colon = tested on: COLO 205 colon
DU-145 prostate = tested on: DU-145 prostate
EKVX NSCLC = tested on: EKVX NSCLC
HCC-2998 colon = tested on: HCC-2998 colon
HCT-116 colon = tested on: HCT-116 colon
HCT-15 colon = tested on: HCT-15 colon
HL-60(TB) leukemia = tested on: HL-60(TB) leukemia
HOP-62 NSCLC = tested on: HOP-62 NSCLC
HT29 colon = tested on: HT29 colon
IGROV1 ovarian = tested on: IGROV1 ovarian
K-562 leukemia = tested on: K-562 leukemia
KM12 colon = tested on: KM12 colon
LOX IMVI melanoma = tested on: LOX IMVI melanoma
M14 melanoma = tested on: M14 melanoma
MCF7 breast = tested on: MCF7 breast
MDA-MB-231 breast = tested on: MDA-MB-231 breast
MDA-MB-435 = tested on: MDA-MB-435
MOLT-4 leukemia = tested on: MOLT-4 leukemia
NCI-H226 lung = tested on: NCI-H226 lung
NCI-H23 lung = tested on: NCI-H23 lung
NCI-H460 lung = tested on: NCI-H460 lung
NCI-H522 lung = tested on: NCI-H522 lung
NCI/ADR-RES ovarian = tested on: NCI/ADR-RES ovarian
OVCAR-3 ovarian = tested on: OVCAR-3 ovarian
OVCAR-4 ovarian = tested on: OVCAR-4 ovarian
OVCAR-5 ovarian = tested on: OVCAR-5 ovarian
OVCAR-8 ovarian = tested on: OVCAR-8 ovarian
PC-3 prostate = tested on: PC-3 prostate
RPMI-8226 leukemia = tested on: RPMI-8226 leukemia
RXF 393 renal = tested on: RXF 393 renal
SF-268 CNS = tested on: SF-268 CNS
SF-295 CNS = tested on: SF-295 CNS
SF-539 CNS = tested on: SF-539 CNS
SK-MEL-2 melanoma = tested on: SK-MEL-2 melanoma
SK-MEL-28 melanoma = tested on: SK-MEL-28 melanoma
SK-MEL-5 melanoma = tested on: SK-MEL-5 melanoma
SK-OV-3 ovarian = tested on: SK-OV-3 ovarian
SN12C renal = tested on: SN12C renal
SNB-75 CNS = tested on: SNB-75 CNS
SR leukemia = tested on: SR leukemia
SW-620 colon = tested on: SW-620 colon
T-47D breast = tested on: T-47D breast
TK-10 renal = tested on: TK-10 renal
U251 CNS = tested on: U251 CNS
UACC-257 melanoma = tested on: UACC-257 melanoma
UACC-62 melanoma = tested on: UACC-62 melanoma
UO-31 renal = tested on: UO-31 renal
HS 578T breast = tested on: HS 578T breast
MALME-3M melanoma = tested on: MALME-3M melanoma
SNB-19 CNS = tested on: SNB-19 CNS

CCOCCOCCOCc1nc(C#N)c(N)o1
> 100 µM: TGI (786-0 renal) | TGI (A498 renal) | TGI (A549 NSCLC) | TGI (ACHN renal) | TGI (BT-549 breast) | TGI (CAKI-1 renal) | TGI (CCRF-CEM leukemia) | TGI (COLO 205 colon) | TGI (DU-145 prostate) | TGI (EKVX NSCLC) | TGI (HCC-2998 colon) | TGI (HCT-116 colon) | TGI (HCT-15 colon) | TGI (HL-60(TB) leukemia) | TGI (HOP-62 NSCLC) | TGI (HT29 colon) | TGI (IGROV1 ovarian) | TGI (K-562 leukemia) | TGI (KM12 colon) | TGI (LOX IMVI melanoma) | TGI (M14 melanoma) | TGI (MCF7 breast) | TGI (MDA-MB-231 breast) | TGI (MDA-MB-435) | TGI (MOLT-4 leukemia) | TGI (NCI-H226 lung) | TGI (NCI-H23 lung) | TGI (NCI-H460 lung) | TGI (NCI-H522 lung) | TGI (NCI/ADR-RES ovarian) | TGI (OVCAR-3 ovarian) | TGI (OVCAR-4 ovarian) | TGI (OVCAR-5 ovarian) | TGI (OVCAR-8 ovarian) | TGI (PC-3 prostate) | TGI (RPMI-8226 leukemia) | TGI (RXF 393 renal) | TGI (SF-268 CNS) | TGI (SF-295 CNS) | TGI (SF-539 CNS) | TGI (SK-MEL-2 melanoma) | TGI (SK-MEL-28 melanoma) | TGI (SK-MEL-5 melanoma) | TGI (SK-OV-3 ovarian) | TGI (SN12C renal) | TGI (SNB-75 CNS) | TGI (SR leukemia) | TGI (SW-620 colon) | TGI (T-47D breast) | TGI (TK-10 renal) | TGI (U251 CNS) | TGI (UACC-257 melanoma) | TGI (UACC-62 melanoma) | TGI (UO-31 renal)

CCCCCCCCCCCCCCCC1=NCC[N+]1(CCO)CCO
3.68 µM: TGI (COLO 205 colon)
3 µM: TGI (786-0 renal)
3.54 µM: TGI (SW-620 colon)
6.28 µM: TGI (RXF 393 renal)
32.4 µM: TGI (EKVX NSCLC)
3.3 µM: TGI (PC-3 prostate)
3.51 µM: TGI (MDA-MB-231 breast)
26.5 µM: TGI (OVCAR-4 ovarian)
13.2 µM: TGI (T-47D breast)
21.6 µM: TGI (A498 renal)
4.4 µM: TGI (MDA-MB-435)
11.9 µM: TGI (BT-549 breast)
4.19 µM: TGI (HCC-2998 colon)
3.23 µM: TGI (HOP-62 NSCLC)
16.1 µM: TGI (SK-MEL-5 melanoma)
2.61 µM: TGI (HL-60(TB) leukemia)
inactive: GI50 (786-0 renal) 1.64 µM | GI50 (A498 renal) 7.79 µM | GI50 (A549 NSCLC) 2.28 µM | GI50 (ACHN renal) 2.53 µM | GI50 (BT-549 breast) 3.3 µM | GI50 (CAKI-1 renal) 3.58 µM | GI50 (COLO 205 colon) 1.87 µM | GI50 (EKVX NSCLC) 10.2 µM | GI50 (HCC-2998 colon) 1.68 µM | GI50 (HCT-116 colon) 1.59 µM | GI50 (HCT-15 colon) 1.94 µM | GI50 (HL-60(TB) leukemia) 0.442 µM | GI50 (HOP-62 NSCLC) 1.71 µM | GI50 (HS 578T breast) 2.51 µM | GI50 (HT29 colon) 2.57 µM | GI50 (IGROV1 ovarian) 1.21 µM | GI50 (K-562 leukemia) 1.36 µM | GI50 (KM12 colon) 1.78 µM | GI50 (M14 melanoma) 1.62 µM | GI50 (MALME-3M melanoma) 12.2 µM | GI50 (MCF7 breast) 3.46 µM | GI50 (MDA-MB-231 breast) 1.81 µM | GI50 (MDA-MB-435) 2.1 µM | GI50 (MOLT-4 leukemia) 1.8 µM | GI50 (NCI-H226 lung) 3.17 µM | GI50 (NCI-H23 lung) 2.16 µM | GI50 (NCI-H460 lung) 1.84 µM | GI50 (NCI/ADR-RES ovarian) 2.62 µM | GI50 (OVCAR-3 ovarian) 2.52 µM | GI50 (OVCAR-4 ovarian) 4.75 µM | GI50 (OVCAR-5 ovarian) 1.97 µM | GI50 (OVCAR-8 ovarian) 3.03 µM | GI50 (PC-3 prostate) 1.42 µM | GI50 (RPMI-8226 leukemia) 4.89 µM | GI50 (RXF 393 renal) 2.47 µM | GI50 (SF-268 CNS) 1.71 µM | GI50 (SF-295 CNS) 10.5 µM | GI50 (SF-539 CNS) 1.91 µM | GI50 (SK-MEL-2 melanoma) 2.89 µM | GI50 (SK-MEL-28 melanoma) 5.1 µM | GI50 (SK-MEL-5 melanoma) 4.39 µM | GI50 (SK-OV-3 ovarian) 4.3 µM | GI50 (SN12C renal) 1.85 µM | GI50 (SNB-19 CNS) 3.8 µM | GI50 (SNB-75 CNS) 2.47 µM | GI50 (SW-620 colon) 1.76 µM | GI50 (T-47D breast) 3.35 µM | GI50 (TK-10 renal) 3.55 µM | GI50 (U251 CNS) 1.64 µM | GI50 (UACC-257 melanoma) 6.48 µM | GI50 (UACC-62 melanoma) 1.77 µM | GI50 (UO-31 renal) 1.4 µM
20.7 µM: TGI (UACC-257 melanoma)
3.47 µM: TGI (NCI-H460 lung)
3.33 µM: TGI (UO-31 renal)
3.27 µM: TGI (UACC-62 melanoma)
2.82 µM: TGI (K-562 leukemia)
8.36 µM: TGI (OVCAR-8 ovarian)
3.01 µM: TGI (M14 melanoma)
26.3 µM: TGI (SF-295 CNS)
15.9 µM: TGI (SK-OV-3 ovarian) | TGI (SNB-19 CNS)
3.46 µM: TGI (SF-268 CNS)
7.17 µM: TGI (HS 578T breast)
3.03 µM: TGI (U251 CNS)
4 µM: TGI (SF-539 CNS)
12.3 µM: TGI (NCI-H226 lung)
4.15 µM: TGI (MOLT-4 leukemia) | TGI (OVCAR-5 ovarian)
6.61 µM: TGI (NCI/ADR-RES ovarian)
3.52 µM: TGI (KM12 colon)
5.74 µM: TGI (OVCAR-3 ovarian)
2.63 µM: TGI (IGROV1 ovarian)
16.8 µM: TGI (SK-MEL-28 melanoma)
9.13 µM: TGI (HT29 colon)
16.6 µM: TGI (SNB-75 CNS)
5.08 µM: TGI (NCI-H23 lung)
10.3 µM: TGI (SK-MEL-2 melanoma)
14.6 µM: TGI (CAKI-1 renal)
5.35 µM: TGI (A549 NSCLC)
14 µM: TGI (MCF7 breast)
40.5 µM: TGI (RPMI-8226 leukemia)
3.92 µM: TGI (SN12C renal)
6.64 µM: TGI (ACHN renal)
2.94 µM: TGI (HCT-116 colon)
4.48 µM: TGI (HCT-15 colon)
13.6 µM: TGI (TK-10 renal)
28 µM: TGI (MALME-3M melanoma)
